Measured values as given in patent publication US20070059260A1, “Benzyl-1,3-thiazolidine-2,4-dione compounds for promoting and/or inducing and/or stimulating the pigmentation of keratin materials and/or for limiting their depigmentation and/or whitening” (L'OREAL, priority 2005, published 2007).
pIC50: −log10 of the molar value.

Experiments:
Type-1 15-PGDH = molecular target: T1, Type-1 15-PGDH (Homo sapiens, UniProt P15428); assay: Test on type-1 15-PGDH (spectrophotometric, NAD/PGE2, 340 nm); format: biochemical; settings: concentration reducing enzymatic activity of 15-PGDH by 50%; 37° C., pH 7.4 Tris buffer, 1.5 mM β-NAD, 50 μM Prostaglandin E2; read-out: IC50dh or % inhibition at 100 μM
T1 construct: made in house
T1 sequence (P15428 1-266): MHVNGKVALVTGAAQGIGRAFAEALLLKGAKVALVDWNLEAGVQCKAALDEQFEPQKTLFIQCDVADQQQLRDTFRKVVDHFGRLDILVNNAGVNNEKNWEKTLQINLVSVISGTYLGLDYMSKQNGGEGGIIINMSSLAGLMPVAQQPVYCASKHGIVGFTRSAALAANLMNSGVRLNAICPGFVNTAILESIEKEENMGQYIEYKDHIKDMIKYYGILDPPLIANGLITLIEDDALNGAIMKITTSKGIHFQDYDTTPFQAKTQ
Procedure: The enzyme 15-PGDH is obtained as described in FR 02/05067 filed in the name of L'Oreal, as a suspension in a medium adjusted to a concentration of 0.3 mg/mL and then blocked at −80° C. For the purposes of the test, this suspension is thawed and stored in ice.
In parallel, a 100 mM, pH 7.4 Tris buffer containing 0.1 mM of dithiothreitol (D5545, Sigma-Aldrich, L'isle D'Abeau Chesne, BP 701, 38297, Saint Quentin Fallavier), 1.5 mM of β-NAD (N6522, Sigma-Aldrich, L'isle D'Abeau Chesne, BP 701, 38297, Saint Quentin Fallavier), and 50 μM of Prostaglandin E2 (P4172, Sigma-Aldrich, L'isle D'Abeau Chesne, BP 701, 38297, Saint Quentin Fallavier) is prepared.
0.965 ml of this buffer (brought to 37° C. beforehand) is introduced into the cuvette of a spectrophotometer (Perkin-Elmer, Lambda 2) thermostatically maintained at 37° C., the measuring wavelength of which is set at 340 nm. 0.035 mL of enzymatic suspension at 37° C. is introduced into the cuvette concomitantly with the recording (corresponding to an increase in the optical density at 340 nm). The maximum reaction rate is recorded.
The test values (containing the compounds of formula (I)) are compared with the control value (without compound of formula (I)); the results indicated represent either the percentage inhibition of the enzymatic activity of 15-PGDH for a given concentration of compound of formula (I), or the concentration at which the compound of formula (I) reduces the enzymatic activity of 15-PGDH by 50%, namely IC50dh.

Row | Structure (SMILES) | pIC50 (Type-1 15-PGDH) | melting point [°C]
1 | CC(C)(C)c1ccc(Oc2ccccc2CC2SC(=O)NC2=O)cc1 (centres unmarked) [Compound 4, 5-[2-(4-tert-Butylphenoxy)benzyl]-1,3-thiazolidine-2,4-dione] | 6.40 | –
2 | CC(C)(C)c1ccc(Oc2cccc(CC3SC(=O)NC3=O)c2)cc1 (centres unmarked) [Compound 5] | 6.24 | –

More lines, now with the values ahead:

Row | pIC50 (Type-1 15-PGDH) | melting point [°C] | Structure (SMILES)
3 | 5.92 | – | O=C1NC(=O)C(Cc2ccccc2Oc2ccc(Cl)cc2Cl)S1 (centres unmarked) [Compound 2]
4 | 5.56 | – | O=C1NC(=O)C(Cc2ccccc2Oc2ccccc2)S1 (centres unmarked) [Compound 3]
5 | – | 84 to 85 | O=C1NC(=O)C(Cc2ccccc2Oc2ccccc2)S1 (centres unmarked) [Example 1, 5-(2-phenoxybenzyl)-1,3-thiazolidine-2,4-dione]
